Experimental data taken from ChEMBL document CHEMBL5543153, “Discovery of a Potent Dual Son of Sevenless 1 (SOS1) and Epidermal Growth Factor Receptor (EGFR) Inhibitor for the Treatment of Prostate Cancer” (J Med Chem, 2024).
The source made the active and inactive calls. No cut-off for these calls is given here.

Columns and labels:
[1] = target: Epidermal growth factor receptor (Homo sapiens, UniProt P00533); assay: Inhibition of EGFR in human PC-3 cells assessed as downregulation of EGF-mediated AKT phosphorylation at 0.5 uM incubated for 15 mins in presence of EGF by Western blotting analysis; assay type: cell-based
PC-3 [2] = assay: Induction of apoptosis in human PC-3 cells assessed as early apoptotic cells at 0.5 uM by Annexin V-FITC staining based flow cytometry (reference value: 2.64%); assay type: functional
PC-3 [3] = assay: Induction of apoptosis in human PC-3 cells assessed as early apoptotic cells at 12.5 uM by Annexin V-FITC staining based flow cytometry (reference value: 2.64%); assay type: functional
PC-3 [4] = assay: Induction of cell cycle arrest in human PC-3 cells assessed as accumulation of cells at G1 phase at 0.5 uM by PI staining based flow cytometry (reference value: 75.66%); assay type: functional
PC-3 [5] = assay: Induction of cell cycle arrest in human PC-3 cells assessed as accumulation of cells at G1 phase at 2.5 uM by PI staining based flow cytometry (reference value: 75.66%); assay type: functional
PC-3 [6] = assay: Induction of cell cycle arrest in human PC-3 cells assessed as accumulation of cells at S phase at 2.5 uM by PI staining based flow cytometry (reference value: 16.58%); assay type: functional
HUVEC [7] = assay: Antiangiogenic activity in HUVEC cells assessed as reduction in tube formation at 0.5 to 12.5 uM incubated for 8 hrs by matrigel based microscopic analysis; assay type: functional, cell-based; settings: Homo sapiens, dose 0.5-12.5 µM
HUVEC [8] = assay: Antiangiogenic activity in HUVEC cells assessed as reduction in tube segments at 0.5 to 12.5 uM incubated for 8 hrs by matrigel based microscopic analysis; assay type: functional, cell-based; settings: Homo sapiens, dose 0.5-12.5 µM
PC-3 [9] = assay: Antitumor activity against human PC-3 cells xenografted in BALB/c mouse assessed as reduction in number of Ki67-positive cells in tumor tissue at ip administrated once every 4 days for 24 days by DAPI staining based immunohistochemical analysis; assay type: functional, organism-based; settings: time 24.0 day
[10] = Toxicity in BALB/c mouse xenografted with human PC-3 cells assessed as change in body weight at 5 mg/kg,ip administrated once every 4 days for 24 days; assay type: organism-based; settings: in vivo, 576 h, time 24 day
[11] = Toxicity in BALB/c mouse xenografted with human PC-3 cells assessed as kidney pathological change at 20 mg/kg,ip administrated once every 4 days for 24 days by hematoxylin and eosin staining based analysis; assay type: organism-based; settings: in vivo, 576 h, time 24 day
[12] = Toxicity in BALB/c mouse xenografted with human PC-3 cells assessed as change in ALT level at 5 mg/kg,ip administrated once every 4 days for 24 days by automatic biochemical analyzer; assay type: organism-based; settings: in vivo, 576 h, time 24 day

Chain of Epidermal growth factor receptor (P00533 whole entry): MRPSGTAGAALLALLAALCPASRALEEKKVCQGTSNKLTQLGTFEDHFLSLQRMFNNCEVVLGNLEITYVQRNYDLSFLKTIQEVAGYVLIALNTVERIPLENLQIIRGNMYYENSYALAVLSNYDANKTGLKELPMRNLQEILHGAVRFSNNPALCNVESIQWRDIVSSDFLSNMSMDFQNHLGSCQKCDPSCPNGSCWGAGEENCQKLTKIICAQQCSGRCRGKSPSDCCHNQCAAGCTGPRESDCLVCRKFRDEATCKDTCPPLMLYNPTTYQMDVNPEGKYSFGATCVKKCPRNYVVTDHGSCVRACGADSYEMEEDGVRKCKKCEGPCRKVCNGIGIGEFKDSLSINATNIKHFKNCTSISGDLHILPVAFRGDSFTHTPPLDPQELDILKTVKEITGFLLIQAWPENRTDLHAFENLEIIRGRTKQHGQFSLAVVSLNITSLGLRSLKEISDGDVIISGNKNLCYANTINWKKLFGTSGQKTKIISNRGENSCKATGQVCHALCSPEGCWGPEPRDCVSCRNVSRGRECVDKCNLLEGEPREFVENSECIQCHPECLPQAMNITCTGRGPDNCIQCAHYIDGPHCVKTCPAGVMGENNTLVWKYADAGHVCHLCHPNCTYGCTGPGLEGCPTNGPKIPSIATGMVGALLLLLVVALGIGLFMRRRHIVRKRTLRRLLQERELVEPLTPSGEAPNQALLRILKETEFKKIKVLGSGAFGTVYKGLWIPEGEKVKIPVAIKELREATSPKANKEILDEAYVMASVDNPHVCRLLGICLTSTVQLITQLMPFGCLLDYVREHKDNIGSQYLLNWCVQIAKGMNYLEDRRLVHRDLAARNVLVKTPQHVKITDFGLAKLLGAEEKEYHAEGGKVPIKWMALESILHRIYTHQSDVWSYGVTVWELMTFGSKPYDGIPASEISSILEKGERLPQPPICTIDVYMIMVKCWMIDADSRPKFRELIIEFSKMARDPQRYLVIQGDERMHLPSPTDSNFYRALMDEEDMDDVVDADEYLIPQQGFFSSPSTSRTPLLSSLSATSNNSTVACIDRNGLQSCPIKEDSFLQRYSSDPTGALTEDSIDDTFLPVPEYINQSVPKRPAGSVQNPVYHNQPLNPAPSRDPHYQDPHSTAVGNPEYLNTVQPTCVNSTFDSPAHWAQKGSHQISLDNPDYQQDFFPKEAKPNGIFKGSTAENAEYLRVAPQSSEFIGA

## COc1cc2ncnc(N[C@H](C)c3cccc(F)c3)c2cc1OC1CCOCC1
[1]
  inhibition: Active
PC-3 [2]
  Activity: 11.7%
PC-3 [3]
  Activity: 21.5%
PC-3 [4]
  Activity: 79.45%
PC-3 [5]
  Activity: 81.85%
PC-3 [6]
  Activity: 5.5%
HUVEC [7]
  Activity: Active
HUVEC [8]
  Activity: Active
PC-3 [9]
  Activity: Dose-Dependent Effect
[10]
  Activity: Toxic
[11]
  Activity: Toxic
[12]
  Activity: Non-Toxic
